The values below come from patent publication US20250186436A1 (4E Therapeutics, Inc., priority 2021, published 2025).

For data set [1], the system named is P-gp (human MDR1, ABCB1). The data set can be described thus: in vitro. The following applies: dog, MDCK-MDR1.
Data set [2] has as its system eIF4E phosphorylation at Serine 209 in HEK 293 cells. The data set can be described thus: eIF4E phosphorylation in HEK 293 cells (phospho-specific antibody, fluorescent plate reader).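 Further: Well-level p-eIF4E immunofluorescence normalized to DAPI signal, expressed as percent eIF4E phosphorylation, with IC50 derived from concentration-response curves.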 It is filed as cell-based. The following applies: Homo sapiens, HEK293; eIF4E phosphorylation at Serine 209, 2 hours exposure; read-out: HEK 293 cell.
In data set [3] the target is T1, recombinant full length human kinase MNK2 (Homo sapiens, UniProt Q9HBH9).
T1 construct: the recombinant full length human kinase MNK2; made in house; host or cells: insect cells
T1 sequence (Q9HBH9 whole entry): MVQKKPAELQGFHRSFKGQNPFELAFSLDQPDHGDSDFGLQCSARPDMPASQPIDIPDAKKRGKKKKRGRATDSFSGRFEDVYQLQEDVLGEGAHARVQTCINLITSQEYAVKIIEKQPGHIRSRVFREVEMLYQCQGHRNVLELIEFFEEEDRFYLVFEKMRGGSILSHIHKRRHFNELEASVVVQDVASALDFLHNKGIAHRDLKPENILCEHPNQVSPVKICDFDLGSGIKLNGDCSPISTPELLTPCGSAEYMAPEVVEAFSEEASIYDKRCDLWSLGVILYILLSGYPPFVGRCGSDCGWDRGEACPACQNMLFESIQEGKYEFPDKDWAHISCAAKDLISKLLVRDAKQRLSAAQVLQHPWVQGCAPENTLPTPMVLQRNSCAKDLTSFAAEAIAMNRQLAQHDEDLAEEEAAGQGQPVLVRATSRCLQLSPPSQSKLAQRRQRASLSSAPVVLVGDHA
Kind of data set: MNK2 radiometric kinase activity assay. Format: biochemical. The following applies: radiometric activity assay; read-out: MNK2.

The target in data set [4] is T2, recombinant full-length human kinase MNK1 (Homo sapiens, UniProt Q9BUB5).
T2 construct: the recombinant full-length human kinase MNK1; made in house; host or cells: insect cells
T2 sequence (Q9BUB5 whole entry): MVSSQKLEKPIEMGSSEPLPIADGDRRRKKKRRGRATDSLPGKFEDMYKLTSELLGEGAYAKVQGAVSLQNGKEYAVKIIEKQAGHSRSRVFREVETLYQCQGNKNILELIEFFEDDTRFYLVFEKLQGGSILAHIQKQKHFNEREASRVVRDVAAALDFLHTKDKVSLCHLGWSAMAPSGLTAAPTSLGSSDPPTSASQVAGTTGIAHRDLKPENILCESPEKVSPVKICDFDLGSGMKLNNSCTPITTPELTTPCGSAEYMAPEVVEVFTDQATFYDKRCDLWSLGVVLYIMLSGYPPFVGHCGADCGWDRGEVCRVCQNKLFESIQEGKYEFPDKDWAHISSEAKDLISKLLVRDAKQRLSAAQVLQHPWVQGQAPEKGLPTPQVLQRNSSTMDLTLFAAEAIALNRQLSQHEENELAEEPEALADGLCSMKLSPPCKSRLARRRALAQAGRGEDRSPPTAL
The data set can be described thus: MNK1 radiometric kinase activity assay. The following applies: radiometric activity assay; read-out: MNK1. Format: biochemical.

Data set [5] is described as follows: Liver microsome stability. Particulars: mouse, liver microsomes. For orientation: Liver microsomes are a subcellular fraction often used to study metabolism.
Data set [6] deals with P-gp (human MDR1, ABCB1). Kind of data set: MDCK-MDR1 permeability (blood-brain barrier permeability). Particulars: dog.
The next data set relates to Wistar rats. The data set can be described thus: Intravenous self-administration with oxycodone and saline regimen. Format: in vivo. Particulars: Wistar rats; for Mean Difference, Šídák's multiple comparisons test: numbers of infusions. Here is the method: Ten male and eleven female Wistar rats (Charles River, Hollister, CA) were used in this study. Rats were housed in groups of 2-3 per cage prior to surgery, and then individually housed to protect their catheters, in a temperature-controlled (22° C.) vivarium on a 12/12h light/dark cycle (lights off at 8:00 AM) with ad libitum access to food and water. The rats acclimated to the animal facility for at least 7 days before surgery. All procedures adhered to the National Institutes of Health Guide for the Care and Use of Laboratory Animals and were approved by the Institutional Animal Care and Use Committee of The Scripps Research Institute.
For surgery, rats were anesthetized with 2 to 3% isoflurane. They were implanted with a silastic catheter (0.3 mm i.d.×0.64 mm o.d.; Dow Corning Co. Midland, MI) into the right external jugular vein under aseptic conditions. The distal end of the catheter was subcutaneously threaded to the back of the rat where it exited via a metal guide cannula (22G; Plastics One Inc., Roanoke, VA) that was anchored at the back of the rat and closed with a small plastic cap and metal cover cap to keep the inside part of the catheter clean and protected (Caine S B, et al. “Effects of dopamine D-1 and D-2 antagonists on cocaine self-administration under different schedules of reinforcement in the rat” J Pharmacol Exp Ther. 270(1):209-18 (1994); Wee S, et al. “Effects of dose and session duration on cocaine self-administration in rats” J Pharmacol Exp Ther. 320(3):1134-43 (2007); Zorrilla E P, et al. “Extended access cocaine self-administration differentially activates dorsal raphe and amygdala corticotropin-releasing factor systems in rats” Addict Biol. 17(2):300-8 (2012); Valtcheva M V, et al. “Surgical extraction of human dorsal root ganglia from organ donors and preparation of primary sensory neuron cultures” Nat Protoc. 11:1877-1888 (2016)). All incisions were closed using veterinary tissue adhesive. After surgery, rats were given analgesic (Flunixin, 2.5 mg/kg s.c.).
Rats were allowed 5-7 days for recovery prior to self-administration.
The patency of catheters in the rats was tested using an ultra-short-acting barbiturate methohexital sodium (Brevital, Eli Lilly, Indianapolis, 1N, 10 mg/mL, 2 mg/rat) every 10-12 days during the study. Generally, a total loss of muscle tone within 3 s after a methohexital sodium injection indicates the patency of a catheter. Any animal that failed the test was excluded from the study.
During experimental sessions, each rat was placed in a standard operant chamber, which was placed in a light- and sound-attenuating cubicle (28×26×20 cm; Med Associates Inc., St. Albans, VT). The front door and the back wall of the chamber were made of transparent plastic, and the other walls were opaque metal. The chamber had two retractable response levers mounted on one side of the opaque walls. A stimulus light was mounted above each lever. A drug injection was delivered by a syringe pump (Razel Scientific Instruments, Georgia, VT) located on top of the cubicle. Experimental sessions were controlled and recorded by a PC computer with custom interface and software in the experimental room.
Experimental sessions were conducted once a day, 5-7 days a week during the dark (active) cycle. After being flushed with 0.9% saline, a rat's indwelling catheter was connected to a tube that exited the chamber through a metal spring and a swivel and was connected to a syringe pump. After the drug delivery system was connected to the rat, the chamber was closed, and the 2 hr session was started immediately. The start of a session was signaled by the presentation of two response levers into the chamber. […] During an injection, stimulus lights above both levers were illuminated and lasted throughout a time-out period (20 s) that followed each injection. Pressing the left lever was counted but had no other programmed consequences. […]

Usually Papp A→B stands for the apparent permeability from the apical to the basolateral side of a cell layer. The Papp B→A is the apparent permeability from the basolateral to the apical side of a cell layer. By half-life is commonly meant the time needed for the level to fall by half in the phase considered. A higher half-life goes with slow loss. As usually defined, the efflux ratio is a quotient of directional permeabilities that is used to spot active efflux.

Consider `Cc1cc(Nc2cc(NC(=O)C3CC4(CNC4)C3)ncn2)c(=O)n2c1C(=O)NC21CCC2(CC2)CC1` [4ET-03-057, N-(6-((8″-methyl-1″,5″-dioxo-1″,5″-dihydro-2″H-dispiro[cyclopropane-1,1′-cyclohexane-4′,3″-imidazo[1,5-a]pyridin]-638-yl)amino)pyrimidin-4-yl)-2-azaspiro[3.3]heptane-6-carboxamide], for which, in the data set with P-gp (human MDR1, ABCB1) [1], the Papp A→B was 0.3 ×10⁻⁶ cm/s. Further, the Papp B→A with P-gp (human MDR1, ABCB1) [1] was found to be 1.1 ×10⁻⁶ cm/s. The IC50 in data set [2] stood at 8.7 nM; in data set [3], 3.4 nM; in data set [4], 61.6 nM. For the same compound, the half-life in data set [5] was determined as 3.65 h.

Take `Cc1cc(Nc2cc(NCCO)ncn2)c(=O)n2c1C(=O)NC21CCC2(CC2)CC1` [4ET-03-074, 6″-((6-((2-hydroxyethyl)amino)pyrimidin-4-yl)amino)-8″-methyl-2″H-dispiro[cyclopropane-1,1′-cyclohexane-4′,3″-imidazo[1,5-a]pyridine]-1″,5″-dione]: the IC50 in data set [2] stood at 11.3 nM; in data set [3], 3.1 nM; in data set [4], 45.9 nM. The compound also displayed a Papp A→B at 5 uM in the data set on P-gp (human MDR1, ABCB1) [6] of 7.6 ×10⁻⁶ cm/s. The Papp B→A at 5 uM with P-gp (human MDR1, ABCB1) [6] came to 58.1 ×10⁻⁶ cm/s. For the same compound, in the data set with P-gp (human MDR1, ABCB1) [6], the efflux ratio at 5 uM was found to be 7.6. Besides, the half-life in data set [5] stood at 1.87 h.

Turning to `Cc1cc(Nc2cc(N)ncn2)c(=O)n2c1C(=O)NC21CCC2(CCC2)CC1` [4ET-01-019, 6″-((6-aminopyrimidin-4-yl)amino)-8″-methyl-2″H-dispiro[cyclobutane-1,1′-cyclohexane-4′,3″-imidazo[1,5-a]pyridine]-1″,5″-dione], the results for the IC50 in data set [2], in data set [3] and in data set [4] were 4.9 nM, 4.2 nM and 43.9 nM, respectively. The Papp A→B at 5 uM with P-gp (human MDR1, ABCB1) [6] stood at 43.9 ×10⁻⁶ cm/s. For the same compound, the Papp B→A at 5 uM in the data set on P-gp (human MDR1, ABCB1) [6] was found to be 71.9 ×10⁻⁶ cm/s. In addition, the efflux ratio at 5 uM in the data set with P-gp (human MDR1, ABCB1) [6] was 1.6. In data set [5], the half-life stood at 4.2 h.

Turning to `Cc1cc(Nc2cc(NC(=O)C3CC3)ncn2)c(=O)n2c1C(=O)NC21CC2(CCC2)C1` [4ET-03-043, N-(6-((8″-methyl-1″,5″-dioxo-1″,5″-dihydro-2″H-dispiro[cyclobutane-1,1′-cyclobutane-3′,3″-imidazo[1,5-a]pyridin]-6″-yl)amino)pyrimidin-4-yl)cyclopropanecarboxamide], the IC50 was 0.9 nM in data set [2], 1.7 nM in data set [3] and 44.9 nM in data set [4]. In the data set on P-gp (human MDR1, ABCB1) [6], this compound came in with a Papp A→B at 5 uM of 27.4 ×10⁻⁶ cm/s. This compound also came in with a Papp B→A at 5 uM with P-gp (human MDR1, ABCB1) [6] of 56.3 ×10⁻⁶ cm/s. Besides, the efflux ratio at 5 uM in the data set with P-gp (human MDR1, ABCB1) [6] came out at 2.1. The half-life in data set [5] was determined as 3.35 h.

As for `COc1ccc2c3c1O[C@H]1C(=O)CC[C@@]4(O)[C@@H](C2)N(C)CC[C@]314` [oxycodone, oxycondone, reference compound], the “numbers of infusions, multiple comparisons test: oxycodone and subsequent saline” value in the data set with Wistar rats (0.15 mg/kg oxycodone, both times this occurred) was “significant differences”. For the same compound, the “Mean Difference, Šídák's multiple comparisons test” value with Wistar rats (0.15 mg/kg oxycodone vs. saline (3rd comparison, first occurrence)) turned out to be 6.547; in the data set with Wistar rats (0.15 mg/kg oxycodone vs. saline (6th comparison, second occurrence)) it was 9.006.

As to `Cc1cc(Nc2cc(N)ncn2)c(=O)n2c1C(=O)NC21CCC2(CC1)CC2(F)F` (stereo not shown) [4ET-03-068, 6″-((6-aminopyrimidin-4-yl)amino)-2,2-difluoro-8″-methyl-2″H-dispiro[cyclopropane-1,1′-cyclohexane-4′,3″-imidazo[1,5-a]pyridine]-1″,5″-dione], in data set [2], the IC50 came out at 3.4 nM. Also, the IC50 in data set [3] is 1.5 nM. Moreover, in the data set on P-gp (human MDR1, ABCB1) [6], the Papp A→B at 5 uM came out at 18.7 ×10⁻⁶ cm/s, the Papp B→A at 5 uM turned out to be 71 ×10⁻⁶ cm/s and the efflux ratio at 5 uM turned out to be 3.8. The IC50 in data set [4] amounted to 25.3 nM. The half-life in data set [5] came to 4.93 h.

Take `Cc1cc(Nc2cc(NC(=O)[C@H]3[C@@H]4CNC[C@@H]43)ncn2)c(=O)n2c1C(=O)NC21CCC2(CC2)CC1` [4ET-03-056, (1R,5S,6r)-N-(6-((8″-methyl-1″,5″-dioxo-1″,5″-dihydro-2″H-dispiro[cyclopropane-1,1′-cyclohexane-4′,3″-imidazo[1,5-a]pyridin]-638-yl)amino)pyrimidin-4-yl)-3-azabicyclo[3.1.0]hexane-6-carboxamide]: in data set [2], the IC50 is 11.1 nM. Further, the IC50 in data set [3] was found to be 3.5 nM. For the same compound, in the data set on P-gp (human MDR1, ABCB1) [6], the Papp A→B at 5 uM was determined as 0.5 ×10⁻⁶ cm/s, the Papp B→A at 5 uM turned out to be 15.9 ×10⁻⁶ cm/s and the efflux ratio at 5 uM was determined as 31.8. In addition, in data set [4], the IC50 was 51.8 nM. The half-life in data set [5] came to 2.95 h.

With `Cc1cc(Nc2cc(N)ncn2)c(=O)n2c1C(=O)NC21CC2(CCCC2)C1` [4ET-01-018, 6″-((6-aminopyrimidin-4-yl)amino)-8″-methyl-2″H-dispiro[cyclopentane-1,1′-cyclobutane-3′,3″-imidazo[1,5-a]pyridine]-1″,5″-dione], the IC50 in data set [2] was 4.1 nM. Moreover, the IC50 in data set [3] was 4.1 nM. Also, in the data set with P-gp (human MDR1, ABCB1) [6], the Papp A→B at 5 uM is 50.8 ×10⁻⁶ cm/s, the Papp B→A at 5 uM worked out at 66.7 ×10⁻⁶ cm/s and the efflux ratio at 5 uM was 1.3. The IC50 in data set [4] is 41.8 nM. In data set [5], this compound showed a half-life of 0.853 h.

In the case of `Cc1cc(Nc2cc(N)ncn2)c(=O)n2c1C(=O)NC21CC2(CC(F)(F)C2)C1` [4ET-01-017, 6″-((6-aminopyrimidin-4-yl)amino)-3,3-difluoro-8″-methyl-2″H-dispiro[cyclobutane-1,1′-cyclobutane-3′,3″-imidazo[1,5-a]pyridine]-1″,5″-dione], in data set [2], the IC50 is 41.6 nM. Also, in data set [3], the IC50 was found to be 7.9 nM. Moreover, in the data set with P-gp (human MDR1, ABCB1) [6], the Papp A→B at 5 uM turned out to be 29 ×10⁻⁶ cm/s, the Papp B→A at 5 uM stood at 47.2 ×10⁻⁶ cm/s and the efflux ratio at 5 uM stood at 1.6. For the same compound, the IC50 in data set [4] was determined as 69.2 nM. Further, in data set [5], the half-life worked out at 4.35 h.
